Reference: US20150344466A1 (SUMITOMO CHEMICAL COMPANY, LIMITED, priority 2013, published 2015)

What was measured:
Assay type in all cases: in vivo
Aphis gossypii [1] = assay: Foliar spray test on Aphis gossypii on cucumber (Test Example 8); settings: 144 h, 500 ppm spray 20 ml/cup, Sir days after spraying, read-out: controlling value
Experimental: On the other hand, cucumber was planted in a polyethylene cup and grown until the first true leaf was spread, and about 20 Aphis gossypii were allowed to parasitize the cucumber. One day after, the test spray solution was sprayed to the cucumber at a ratio of 20 ml/cup. Sir days after spraying, the number of Aphis gossypii was investigated, and the controlling value was calculated according to the following equation. Controlling value (%)={1−(Cb×Tai)/(Cai×Tb)}×100 In the equation, the symbols represent as follows. Cb: the number of insects in a non-treated section before treatment Cai: the number of insects in a non-treated section on observation Tb: the number of insects in a treated section before treatment Tai: the number of insects in a treated section on observation

Blattella germanica [2] = assay: Knockdown spray test on Blattella germanica, 0.1% w/v oil formulation (Test Example 2); settings: topical, 0.25 h, active ingredient 0.1% w/v, 1.5 ml sprayed, within 15 minutes, read-out: knockdown rate of the test insects within 15 minutes
Method in brief: (§1)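 Ten German cockroaches (5 males, 5 females) in a mesh-bottomed, butter-walled container were sprayed with 1.5 ml test solution from 60 cm at 0.42 kg/cm^2 inside a chamber.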

Plutella xylostella = assay: Foliar spray test on Plutella xylostella on cabbage (Test Example 10); settings: 120 h, third instar larvae of Plutella xylostella on cabbage, 500 ppm spray 20 ml/cup, after five days, read-out: controlling value
Method in brief: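 Cabbage at the third–fourth true-leaf stage sprayed with test solution at 20 ml/cup, dried, then infested with 10 third-instar larvae. Insects counted after five days; controlling value (%) calculated from treated and non-treated counts before treatment and at observation.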

Culex pipiens pallens [3] = assay: Knockdown spray test on adult Culex pipiens pallens (Test Example 4); settings: topical, 0.25 h, active ingredient 0.1% w/v, 0.5 ml sprayed, within 15 minutes, read-out: knockdown rate of the test insects within 15 minutes
Method in brief: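 Ten adult mosquitoes in a gauze-covered cup inside a 46×46×70 cm chamber were sprayed with 0.5 ml of test solution from 30 cm at 0.4 kg/cm^2. The cup was removed at once, and knocked-down insects were counted at 2, 5 and 15 min; knockdown rate (%) = knocked-down/tested ×100.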

Aphis gossypii [4] = assay: Soil treatment test on Aphis gossypii on cucumber (Test Example 9); settings: 168 h, 5 ml treatment solution in contact with soil, seven days after putting insects, read-out: controlling value
Experimental: On the other hand, cucumber was planted in a polyethylene cup with a plurality of small holes on the bottom and grown until the first true leaf was spread. A cup in which cucumber was planted was put in a plastic cup with 5 ml of the test treatment solution, so that the soil in the cup was in contact with the treatment liquid. After five days, about 20Aphis gossypii were allowed to parasitize the cucumber, and seven days after putting insects, the number of Aphis gossypii was investigated, and the controlling value was calculated according to the following equation. Controlling value (%)={1−(Cb×Tai)/([…])}×100 In the equation, the symbols represent as follows. Cb: the number of insects in a non-treated section before treatment Cai: the number of insects in a non-treated section on observation Tb: the number of insects in a treated section before treatment Tai: the number of insects in a treated section on observation

Musca domestica [5] = assay: Knockdown spray test on adult Musca domestica (Test Example 3); settings: topical, 0.25 h, active ingredient 2.0% w/v, 0.5 ml sprayed, within 15 minutes, read-out: knockdown rate of the test insects within 15 minutes
Method in brief: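 Ten adult house flies (5 male, 5 female) in a gauze-covered cup sprayed with 0.5 ml test solution from 30 cm at 0.9 kg/cm^2 inside a chamber, then removed. Knocked-down flies counted at 2, 5 and 15 min and expressed as % of insects tested.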

Blattella germanica [6] = assay: Knockdown spray test on Blattella germanica, 2.0% w/v oil formulation (Test Example 1); settings: topical, 0.25 h, active ingredient 2.0% w/v, 1.5 ml sprayed, within 15 minutes, read-out: knockdown rate of the test insects within 15 minutes
Method in brief: as §1

Musca domestica [7] = assay: Filter paper/sucrose bait death rate test on Musca domestica (Test Example 5); settings: female imagoes of Musca domestica, 0.7 ml on filter paper, after 24 hours
Method in brief: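 Filter paper in a 5.5 cm cup dosed with 0.7 ml test drug solution, with 30 mg sucrose as bait. Ten female adult houseflies released and cup sealed. Dead insects counted after 24 h; death rate (%) = dead/tested × 100.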

Culex pipiens pallens [8] = assay: Larvicidal test on Culex pipiens pallens, eight days (Test Example 7); settings: 192 h; last-instar larvae of Culex pipiens pallens; 3.5 ppm in water; eight days later; read-out: death rate
Method in brief: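 Twenty last-instar larvae placed in 100 ml ion-exchanged water containing test drug at 3.5 ppm active ingredient. Mortality scored after eight days; death rate = dead/tested × 100.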

Spodoptera litura = assay: Foliar spray test on Spodoptera litura on cabbage (Test Example 11); settings: 96 h, fourth instar larvae of Spodoptera litura on cabbage, 500 ppm spray 20 ml/cup, after 4 days, read-out: controlling value
Method in brief: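 Cabbage is grown in cups to the third–fourth true leaf and sprayed at 20 ml/cup. Once the spray has dried, 10 fourth-instar larvae are released per cup and survivors are counted after 4 days. Controlling value (%) is corrected using pre-treatment and observation counts in treated and untreated sections.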

Culex pipiens pallens [9] = assay: Larvicidal test on Culex pipiens pallens, one day (Test Example 6); settings: 24 h; last-instar larvae of Culex pipiens pallens; 3.5 ppm in water; one day later; read-out: death rate
Experimental: Each of the formulations of Compounds of Present Invention (39), (63), (71), (72), (92), (93), (95), (106), (150), (171), (170), (181), (182), (183), (187), (188), (189), (190), (191), (192), (200), (201), (201), (234), (246), (290) and (299) obtained in Formulation Example 15 was diluted with water, so as to have a concentration of the active ingredient of 500 ppm, to prepare a test drug solution.
20 last-instar larvae of Culex pipiens pallens were released into a liquid to which 0.7 ml of the above test drug solution was added to 100 ml of ion-exchanged water (a concentration of the active ingredient of 3.5 ppm). One day later, the life and death of the Culex pipiens pallens was examined, and the death rate was calculated. The death rate was calculated by the following equation.
Death rate (%)=(Number of dead insects/Number of tested insects)×100

Row | Compound | pest or weed control at 0.1 % strength (Blattella germanica [2]) [%] | pest or weed control at 0.1 % strength (Culex pipiens pallens [3]) [%] | pest or weed control at 500 ppm (Aphis gossypii [4]) [%] | pest or weed control at 2 % strength (Blattella germanica [6]) [%] | also measured
1 | O=C(NCC1CCOC1)c1cc(CCCCCCO)on1 (centres unmarked) [(144), N-(tetrahydrofuran-3-ylmethyl)-5-(6-hydroxyhexyl)isoxazole-3-carboxamide] | – | – | – | – | pest or weed control at 500 ppm (Aphis gossypii [1]): ≥ 90%
2 | O=C(NCC1CCOCC1)c1cc(COCc2ccc(OC(F)(F)F)cc2)on1 [(94), N-(tetrahydropyran-4-ylmethyl)-5-(4-trifluoromethoxybenzyloxymethyl)isoxazole-3-carboxamide] | ≥ 80 | ≥ 80 | – | – | pest or weed control at 500 ppm (Plutella xylostella): ≥ 90%; pest or weed control at 500 ppm (Aphis gossypii [1]): ≥ 90%
3 | O=C(NCCC1CCOCC1)c1cc(COCc2ccccc2)on1 [(18), N-[2-(tetrahydropyran-4-yl)ethyl]-5-benzyloxymethylisoxazole-3-carboxamide] | – | ≥ 80 | ≥ 90 | – | –
4 | CC1(CNC(=O)c2cc(COCc3ccccc3)on2)CCOC1 (centres unmarked) [(36), N-(3-methyltetrahydrofuran-3-ylmethyl)-5-benzyloxymethylisoxazole-3-carboxamide] | – | ≥ 80 | ≥ 90 | ≥ 80 | pest or weed control at 2 % strength (Musca domestica [5]): ≥ 80%
5 | CCCCn1cc(C(=O)NCC2CCOC2)cn1 (centres unmarked) [(51), N-(tetrahydrofuran-3-ylmethyl)-1-butyl-1H-pyrazole-4-carboxamide] | – | – | ≥ 90 | – | –
6 | O=C(NCC1CCOC1)c1cn(Cc2ccccc2)nn1 (centres unmarked) [(9)] | – | – | ≥ 90 | – | pest or weed control at 500 ppm (Musca domestica [7]): ≥ 90%
7 | O=C(NCC1CCOCC1)c1cc(COCc2ccc(F)cc2)on1 [(90), N-(tetrahydropyran-4-ylmethyl)-5-(4-fluorobenzyloxymethyl)isoxazole-3-carboxamide] | ≥ 80 | ≥ 80 | ≥ 90 | – | pest or weed control at 500 ppm (Musca domestica [7]): ≥ 90%
8 | CCCCn1cc(C(=O)NCC2CCOC2)nn1 (centres unmarked) [(54), N-(tetrahydrofuran-3-ylmethyl)-1-butyl-1H-1,2,3-triazole-4-carboxamide] | – | – | ≥ 90 | – | pest or weed control at 500 ppm (Musca domestica [7]): ≥ 90%
9 | O=C(NC1CCOCC1)c1cc(COCc2ccccc2)on1 [(43), N-(tetrahydropyran-4-yl)-5-benzyloxymethylisoxazole-3-carboxamide] | – | ≥ 80 | ≥ 90 | ≥ 80 | –
10 | O=C(NCC1CCOC1)c1cc(COCC2CCCC2)on1 (centres unmarked) [(131), N-(tetrahydrofuran-3-ylmethyl)-5-cyclopentylmethoxymethylisoxazole-3-carboxamide] | – | ≥ 80 | – | ≥ 80 | pest or weed control at 2 % strength (Musca domestica [5]): ≥ 80%; pest or weed control at 500 ppm (Aphis gossypii [1]): ≥ 90%
11 | O=C(NCC1CCOC1)c1cc(COc2cccc(F)c2)on1 (centres unmarked) [(194), N-(tetrahydrofuran-3-ylmethyl)-5-(3-fluorophenoxymethyl)isoxazole-3-carboxamide] | ≥ 80 | ≥ 80 | ≥ 90 | – | –
12 | O=C(NCC1CCOC1)c1cc(COCc2ccc3c(c2)OCO3)on1 (centres unmarked) [(105), N-(tetrahydrofuran-3-ylmethyl)-5-(3,4-methylenedioxybenzyloxymethyl)isoxazole-3-carboxamide] | ≥ 80 | ≥ 80 | ≥ 90 | – | pest or weed control at 3.5 ppm (Culex pipiens pallens [8]): ≥ 90%; pest or weed control at 500 ppm (Spodoptera litura): ≥ 80%; pest or weed control at 500 ppm (Musca domestica [7]): ≥ 90%; pest or weed control at 500 ppm (Plutella xylostella): ≥ 90%
13 | O=C(NC[C@@H]1CCOC1)c1cc(COCc2ccccc2)on1 [(34), N—[(S)-tetrahydrofuran-3-ylmethyl]-5-benzyloxymethylisoxazole-3-carboxamide] | – | ≥ 80 | ≥ 90 | ≥ 80 | pest or weed control at 2 % strength (Musca domestica [5]): ≥ 80%; pest or weed control at 500 ppm (Musca domestica [7]): ≥ 90%
14 | O=C(NCC1COCCO1)c1cc(COCc2ccccc2)on1 (centres unmarked) [(31)] | – | ≥ 80 | ≥ 90 | ≥ 80 | –
15 | O=C(NCC1CCOC1)c1cc(COc2ccc3c(c2)OCO3)on1 (centres unmarked) [(204), N-(tetrahydrofuran-3-ylmethyl)-5-(5-(1,3-benzodioxolanyl)oxymethyl)isoxazole-3-carboxamide] | ≥ 80 | ≥ 80 | ≥ 90 | – | –
16 | O=C(NC[C@H]1CCOC1)c1cc(COCc2ccccc2)on1 [(33), N—[(R)-tetrahydrofuran-3-ylmethyl]-5-benzyloxymethylisoxazole-3-carboxamide] | – | ≥ 80 | ≥ 90 | ≥ 80 | pest or weed control at 2 % strength (Musca domestica [5]): ≥ 80%
17 | O=C(NCC1CCOCC1)c1cc(COCc2ccc3c(c2)OCO3)on1 [(106), N-(tetrahydropyran-4-ylmethyl)-5-(3,4-methylenedioxybenzyloxymethyl)isoxazole-3-carboxamide] | ≥ 80 | ≥ 80 | ≥ 90 | – | pest or weed control at 3.5 ppm (Culex pipiens pallens [8]): ≥ 90%; pest or weed control at 500 ppm (Spodoptera litura): ≥ 80%; pest or weed control at 500 ppm (Plutella xylostella): ≥ 90%; pest or weed control at 3.5 ppm (Culex pipiens pallens [9]): ≥ 90%
18 | O=C(NCCC1CCOC1)c1cc(COCc2ccccc2)on1 (centres unmarked) [(30), N-[2-(tetrahydrofuran-3-yl)ethyl]-5-benzyloxymethylisoxazole-3-carboxamide] | – | ≥ 80 | ≥ 90 | ≥ 80 | pest or weed control at 2 % strength (Musca domestica [5]): ≥ 80%
19 | O=C(NCC1CCOC1)c1cc(CCCCCO)on1 (centres unmarked) [(142), N-(tetrahydrofuran-3-ylmethyl)-5-(5-hydroxypentyl)isoxazole-3-carboxamide] | – | – | ≥ 90 | – | –
20 | CCCCc1nc(C(=O)NCC2CCOC2)no1 (centres unmarked) [(57), N-(tetrahydrofuran-3-ylmethyl)-5-butyl-1,2,4-oxadiazole-3-carboxamide] | – | – | ≥ 90 | – | –
